In patent US20070155739A1, “Substituted bis-amide metalloprotease inhibitors” (ALANTOS PHARMACEUTICALS, INC., priority 2005, published 2007):
Where two headings read alike, the source gives them in different places.

What was measured:
[1] = Microsomal stability, human microsomes; assay type: in vitro ADME; settings: human microsomes 0.3 mg/mL, 1 μM compound, 60 min at 37° C.
Protocol: (§1) Assay for Microsomal Stability
(§2) For microsomal stability testing 1 μM conzentration of compound and human or rat microsomes (0.3 mg/mL, BD bioscience) are used in the in vitro assay. To ensure proper energy supply for microsomal degradation of compound, an energy regenerating system comprised of NADP, glucose 6-phosphate and glucose 6-phosphate dehydrogenase is added to samples and suspension is incubated for 60 min at 37° C. in rotary shaker. After incubation time, acetonitrile containing internal standard is added to stop metabolization by precipitation of proteins. After centrifugation step, supernatant is analysed by LC-MS/MS and percentage of compound remaining is analysed.

[2] = Microsomal stability, rat microsomes; assay type: in vitro ADME; settings: rat microsomes 0.3 mg/mL, 1 μM compound, 60 min at 37° C.
Protocol: as §1, §2

MMP-13 = MMP-13 (Homo sapiens, UniProt P45452); assay: Assay for determining MMP-13 inhibition (fluorogenic substrate); assay type: biochemical
Protocol: The MMP-13 inhibiting activity of the bis-amide metalloprotease inhibiting compounds of the present invention may be measured using any suitable assay known in the art. A standard in vitro assay for MMP-13 inhibiting activity is described in Example 999 and a description of the microsomal stability assay is described in Example 999a.
Assay for Determining MMP-13 Inhibition
The typical assay for MMP-13 activity is carried out in assay buffer comprised of 50 mM Tris, pH 7.5, 150 mM NaCl, 5 mM CaCl2 and 0.05% Brij-35. Different concentrations of tested compounds are prepared in assay buffer in 50 μL aliquots. 10 μL of 40 nM stock solution of MMP-13 enzyme is added to the compound solution. The mixture of enzyme and compound in assay buffer is thoroughly mixed and incubated for 20 minutes at room temperature. Upon the completion of incubation, the assay is started by addition of 40 μL of 12.5 μM stock solution of MMP-13 fluorogenic substrate (Calbiochem Cat. No. 444235). The time-dependent increase in fluorescence is measured at the 325 nm excitation and 393 nm emission by automatic plate multireader. The IC50 values are calculated from the initial reaction rates. Selectivity assays were run in a similar manner using MMP-1, MMP-3, MMP-8, MMP-12, MMP-14 and TACE.

[3] = Microsomal stability, comparison in text (species not stated); assay type: in vitro ADME; settings: compared with unsubstituted Example 1040d
Protocol: as §2

[4] = Cell viability, comparison; assay type: cell-based; settings: compared with unsubstituted Example 1040d
[5] = Table 2, methyl substitution at R^2 or R^3, read-out: IC50 (nM), Comparison of MMP-13 Activity Versus Location of Substituent (R^2 or R^3)
[6] = Table 1, read-out: IC50 (nM), Summary of MMP-13 Activity for Compounds of Formula I

| Human (%), microsomal stability, percentage of compound remaining [1] [%] | Rat (%), microsomal stability, percentage of compound remaining [2] [%] | IC50 (MMP-13; [6]) [nM] | SMILES | further results |
| --- | --- | --- | --- | --- |
| 93 | 70 | – | COc1cccc(CNC(=O)c2cc(C(=O)N[C@H](C)c3ccc(-c4nnn[nH]4)cc3)ncn2)c1 (stereo in doubt) [Example 1006] | IC50 (MMP-13; [5]): > 100 nM |
| – | – | < 200 | Cc1cc(CNC(=O)c2cc(C(=O)N[C@@H](C)c3ccc(C(=O)O)cc3)ncn2)ccc1F [Example 1000] | – |
| – | – | < 10 | Cc1cc(CNC(=O)c2cc(C(=O)N[C@@H](C(N)=O)c3ccc(-c4nnn[nH]4)cc3)ncn2)ccc1F [Example 1002] | – |
| – | – | < 200 | O=C(NCc1ccc(F)cc1)c1cc(C(=O)N[C@@H](CO)c2ccc(-c3nnn[nH]3)cc2)ncn1 [Example 1004] | – |
| – | – | – | COc1cccc(CNC(=O)c2cc(C(=O)N[C@@H](C)c3ccc(-c4nnn[nH]4)cc3)ncn2)c1 [Example 1005] | microsomal stability, in words [3]: improvements; IC50 (MMP-13; [5]): < 10 nM; cell viability, in words [4]: improvements |
| – | – | < 10 | Cc1cc(CNC(=O)c2cc(C(=O)N[C@@H](C)c3ccc(-c4nnn[nH]4)cc3)ncn2)ccc1F [Example 1007] | – |
| 100 | 90 | – | C[C@H](NC(=O)c1cc(C(=O)NCc2ccc(F)cc2)ncn1)c1ccc(-c2nnn[nH]2)cc1 [Example 1007c] | – |
| – | – | < 1000 | C[C@H](NC(=O)c1cc(C(=O)NCc2cccs2)ncn1)c1ccc(-c2nnn[nH]2)cc1 [Example 1007d] | – |
| – | – | < 200 | CCc1cc(CNC(=O)c2cc(C(=O)N[C@@H](C)c3ccc(-c4nnn[nH]4)cc3)ncn2)cs1 [Example 1007o] | – |
| – | – | < 200 | Cc1cc(CNC(=O)c2cc(C(=O)N[C@@H](C)c3ccc(-c4noc(CCC(=O)O)n4)cc3)ncn2)ccc1F [Example 1021] | – |
| – | – | < 200 | Cc1cc(CNC(=O)c2cc(C(=O)N[C@@H](C)c3ccc(C(=O)N4CCOCC4)cc3)ncn2)ccc1F [Example 1028e] | – |
| – | – | – | C[C@@H](NC(=O)c1cc(C(=O)NCc2ccc(-c3nnn[nH]3)cc2)ncn1)c1ccccc1 [Example 1040a] | IC50 (MMP-13; [5]): > 100 nM |
| 96 | 96 | – | C[C@H](NC(=O)c1cc(C(=O)NCc2ccc(-c3nnn[nH]3)cc2)ncn1)c1ccccc1 [Example 1040b] | IC50 (MMP-13; [5]): < 10 nM |
| 75 | 38 | – | COc1cccc(CNC(=O)c2cc(C(=O)NCc3ccc(-c4nnn[nH]4)cc3)ncn2)c1 [Example 1040d, pyrimidine-4,6-dicarboxylic acid 4-(3-methoxybenzylamide) 6-[4-(1H-tetrazol-5-yl)-benzylamide]] | – |
| 98 | 58 | – | O=C(NCc1ccc(F)cc1)c1cc(C(=O)NCc2ccc(-c3nnn[nH]3)cc2)ncn1 [Example 1040e] | – |
